Patent publication US8815918B2, “Imidazo [2, 1-B] [1, 3, 4] thiadiazole derivatives” (Centro Nacional de Investigaciones Oncologicas (CNIO), priority 2009, dated 2014)
Read-outs that look alike come from different tables or passages of the source.

Biological target: PI3K (p110α/p85α) (Homo sapiens (Human), UniProt P42336)
Assay: PI3K Activity Assay (ADP Hunter Plus)
Type: biochemical
Protocol: The kinase activity was measured by using the commercial ADP Hunter™ Plus assay available from DiscoveRx (#33-016), which is a homogeneous assay to measure the accumulation of ADP, a universal product of kinase activity. The enzyme, PI3K (p110α/p85α was purchased from Carna Biosciences (#07CBS-0402A). The assay was done following the manufacturer recommendations with slight modifications: Mainly the kinase buffer was replace by 50 mM HEPES, pH 7.5, 3 mM MgCl2, 100 mM NaCl, 1 mM EGTA, 0.04% CHAPS, 2 mM TCEP and 0.01 mg/ml BGG. The PI3K was assayed in a titration experiment to determine the optimal protein concentration for the inhibition assay. To calculate the IC50 of the ETP-compounds, serial 1:5 dilutions of the compounds were added to the enzyme at a fixed concentration (2.5 μg/mL. The enzyme was preincubated with the inhibitor and 30 μM PIP2 substrate (P9763, Sigma) for 5 min and then ATP was added to a final 50 μM concentration. Reaction was carried out for 1 hour at 25° C. Reagent A and B were sequentially added to the wells and plates were incubated for 30 min at 37° C. Fluorescence counts were read in a Victor instrument (Perkin Elmer) with the recommended settings (544 and 580 nm as excitation and emission wavelengths, respectively). Values were normalized against the control activity included for each enzyme (i.e., 100% PI3 kinase activity, without compound). These values were plot against the inhibitor concentration and were fit to a sigmoid dose-response curve by using the Graphad software.

[1] = read-out: Biological activity in PI3Kα, semi-quantitative

Sequence of PI3K (p110α/p85α) (P42336 whole entry): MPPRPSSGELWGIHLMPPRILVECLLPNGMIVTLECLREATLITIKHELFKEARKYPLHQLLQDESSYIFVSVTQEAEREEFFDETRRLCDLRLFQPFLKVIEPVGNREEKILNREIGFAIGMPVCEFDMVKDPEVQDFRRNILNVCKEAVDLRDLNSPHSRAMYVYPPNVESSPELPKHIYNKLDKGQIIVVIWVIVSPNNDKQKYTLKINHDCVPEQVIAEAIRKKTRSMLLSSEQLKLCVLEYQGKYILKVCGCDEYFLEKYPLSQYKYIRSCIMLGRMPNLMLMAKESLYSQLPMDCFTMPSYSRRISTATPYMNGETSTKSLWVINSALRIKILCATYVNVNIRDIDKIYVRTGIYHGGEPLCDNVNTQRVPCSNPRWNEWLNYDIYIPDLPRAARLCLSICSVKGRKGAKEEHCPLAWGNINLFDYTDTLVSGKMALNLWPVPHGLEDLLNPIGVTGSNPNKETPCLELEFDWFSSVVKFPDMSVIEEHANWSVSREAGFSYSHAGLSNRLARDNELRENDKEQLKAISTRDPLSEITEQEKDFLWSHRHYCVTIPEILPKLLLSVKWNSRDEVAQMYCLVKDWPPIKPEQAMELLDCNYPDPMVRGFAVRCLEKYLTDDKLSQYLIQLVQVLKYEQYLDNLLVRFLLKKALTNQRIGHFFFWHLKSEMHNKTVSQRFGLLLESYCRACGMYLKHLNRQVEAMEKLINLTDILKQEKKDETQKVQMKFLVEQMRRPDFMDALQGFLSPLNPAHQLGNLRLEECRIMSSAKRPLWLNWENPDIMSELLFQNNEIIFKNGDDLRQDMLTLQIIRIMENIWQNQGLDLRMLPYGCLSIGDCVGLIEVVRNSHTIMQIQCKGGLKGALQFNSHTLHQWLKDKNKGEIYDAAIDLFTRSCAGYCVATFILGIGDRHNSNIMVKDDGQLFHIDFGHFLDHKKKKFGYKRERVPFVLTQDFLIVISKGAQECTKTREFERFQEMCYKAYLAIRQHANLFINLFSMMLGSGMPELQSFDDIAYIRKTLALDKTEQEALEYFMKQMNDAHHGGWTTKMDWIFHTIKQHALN
Sequence of PI3K (p110α/p85α) (P27986 whole entry partner): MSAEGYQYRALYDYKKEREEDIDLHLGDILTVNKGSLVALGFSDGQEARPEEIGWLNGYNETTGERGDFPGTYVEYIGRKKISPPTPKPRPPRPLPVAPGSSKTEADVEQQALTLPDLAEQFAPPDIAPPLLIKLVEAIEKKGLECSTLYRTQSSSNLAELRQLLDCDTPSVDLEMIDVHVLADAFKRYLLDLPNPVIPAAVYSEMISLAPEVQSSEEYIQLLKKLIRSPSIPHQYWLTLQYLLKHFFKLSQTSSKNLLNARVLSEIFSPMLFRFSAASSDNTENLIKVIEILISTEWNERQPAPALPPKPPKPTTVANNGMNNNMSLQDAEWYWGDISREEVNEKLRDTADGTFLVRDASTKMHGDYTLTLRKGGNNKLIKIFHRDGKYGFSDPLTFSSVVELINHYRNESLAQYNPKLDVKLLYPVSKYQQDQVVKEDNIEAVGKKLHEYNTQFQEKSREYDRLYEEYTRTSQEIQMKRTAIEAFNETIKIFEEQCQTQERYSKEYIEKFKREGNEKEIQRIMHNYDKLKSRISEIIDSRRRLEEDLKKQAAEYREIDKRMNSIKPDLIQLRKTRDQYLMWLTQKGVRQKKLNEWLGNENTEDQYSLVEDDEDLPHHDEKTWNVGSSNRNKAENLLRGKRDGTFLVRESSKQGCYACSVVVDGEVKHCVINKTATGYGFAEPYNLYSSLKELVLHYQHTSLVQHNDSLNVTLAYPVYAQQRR

| IC50 [1] [µM] | IC50 (read-out: IC50 [μM] PI3Kα) [µM] | inhibition at 10 µM (10 μM compound concentration, read-out: Inhibition (%) of PI3Kα activity, Inh (%) at 10 μM) [%] | Structure (SMILES) |
| --- | --- | --- | --- |
| 0.1 to 1 | 0.437 | – | Nc1ncc(-c2cnc3sc(-c4cccc(S(=O)(=O)N5CCOCC5)c4)nn23)cc1C(F)(F)F [Example 45, 5-{2-[3-(Morpholine-4-sulfonyl)-phenyl]-imidazo[2,1-b][1,3,4]thiadiazol-5-yl}-3-trifluoromethyl-pyridin-2-ylamine] |
| < 0.1 | – | – | CC(=O)Nc1cccc(-c2nn3c(-c4cnc(N)c(C(F)(F)F)c4)cnc3s2)c1 [Example 46, N-{3-[5-(6-Amino-5-trifluoromethyl-pyridin-3-yl)-imidazo[2,1-b][1,3,4]thiadiazol-2-yl]-phenyl}-acetamide] |
| < 0.1 | 0.021 | – | COc1cncc(-c2nn3c(-c4cnc(N)c(C(F)(F)F)c4)cnc3s2)c1 [Example 47, 5-[2-(5-Methoxy-pyridin-3-yl)-imidazo[2,1-b][1,3,4]thiadiazol-5-yl]-3-trifluoromethyl-pyridin-2-ylamine] |
| < 0.1 | – | – | CS(=O)(=O)c1ccc(-c2cnc3sc(-c4cnc(N)c(C(F)(F)F)c4)nn23)cc1 [Example 49, 5-[5-(4-Methanesulfonyl-phenyl)-imidazo[2,1-b][1,3,4]thiadiazol-2-yl]-3-trifluoromethyl-pyridin-2-ylamine] |
| 0.1 to 1 | – | 97 | Nc1ncc(-c2nn3c(-c4ccc(F)nc4)cnc3s2)cc1C(F)(F)F [Example 50, 5-[5-(6-Fluoro-pyridin-3-yl)-imidazo[2,1-b][1,3,4]thiadiazol-2-yl]-3-trifluoromethyl-pyridin-2-ylamine] |
| < 0.1 | 0.018 | – | COC(=O)c1ccc(-c2cnc3sc(-c4cnc(N)c(C(F)(F)F)c4)nn23)cc1OC [Example 51, 4-[2-(6-Amino-5-trifluoromethyl-pyridin-3-yl)-imidazo[2,1-b][1,3,4]thiadiazol-5-yl]-2-methoxy-benzoic acid methyl ester] |
